{
  "source": "patent US20150079105A1",
  "about": "“TREATMENT OF ACUTE INFLAMMATION IN THE RESPIRATORY TRACT” (UCL Business PLC, priority 2012, published 2015)",
  "key": {"naïve mice": {"system": "naïve mice", "experiment": "Intranasal administration of recombinant CCL2 or CCL7 to naïve mice, BAL fluid cell counts", "format": "in vivo", "details": "500 ng/mouse i.n., 3 h; for total cell number recovered from BAL fluid: compared to saline treated controls", "description": "FIG. 15. Naïve mice were administered with either rCCL2 or rCCL7 (500 ng/mouse, i.n.) and 3 h later BAL fluid was recovered. BAL fluid total cell counts (A) and total neutrophils (B) were calculated from differential cell counts performed on cytospin preparations. The percentage of neutrophils in BAL fluid was also calculated (C). Differential cell counts were performed on cytospin preparations following saline (D), rCCL2 (E) or rCCL7 (F) administration. Data were analysed by one way ANOVA with Newman-Keuls post hoc test: *p<0.05, **p<0.01,*** p<0.001. Arrows indicate: N, neutrophil; M, monocyte/macrophage.\nIn order to determine the whether CCL2 and CCL7 are able to directly recruit leukocytes into the lung, recombinant CCL2 or CCL7 was administered into the lungs of naïve mice and sampled the BAL fluid after 3 h. […] Differential cell counts were performed on cytospin preparations following saline (FIG. 15D), rCCL2 (FIG. 15E) or rCCL7 (FIG. 15F) administration."}, "human neutrophils": {"system": "human neutrophils", "experiment": "Human neutrophil chemotaxis (ChemoTX) towards recombinant human chemokines", "format": "cell-based", "details": "50 ng/ml; 45 min; 5×10^4 neutrophils per well", "description": "FIG. 17. Healthy human volunteers were challenged with nebulized 0.9% saline […] (final LPS dose was 50 μg) and BAL fluid collected 6 hours later. CCL7 protein levels in BAL fluid from saline-treated or LPS-challenged human volunteers were measured by ELISA (a). Human neutrophil chemotaxis was measured across 5 μm membranes (ChemoTX, NeuroProbe) in response to recombinant human (rh) CXCL8 or rhCCL7 (b). Neutrophil chemotaxis towards LPS-treated human BAL fluid was measured in the presence of neutralizing anti-CXCL8 or anti-CCL7 antibodies (c). BAL fluid was collected from patients suffering with ALI on intensive care units. CCL7 protein (d) and CCL2 protein (f) in ALI BAL fluid was measured by ELISA. Neutrophil chemotaxis towards BAL fluid obtained from patients with ALI was measured in the presence of neutralizing anti-CXCL8 and ant-CCL7 antibodies (e). […]\nAlthough it is widely accepted that CXCL8 (IL-8) is an important chemokine in human neutrophilic lung disease (Miller, E. J. et al Am. Rev. Respir. Dis. 146, 427-432 (1992)), it is far from clear whether other chemokines are associated with disease pathogenesis. […] For these studies, CCL7 was measured by ELISA in BAL fluid from healthy volunteers challenged with LPS (50 μg) at 6 hours as previously described (Shyamsundar, M. et al Am. J. Respir. Crit Care Med. 179, 1107-1114 (2009)). […]"}, "LPS challenged mice": {"system": "LPS challenged mice", "experiment": "LPS-induced acute lung inflammation in mice: BAL fluid cell counts, MPO, serum albumin", "format": "in vivo", "details": "10 mg/kg i.p. immediately after LPS challenge; 3 h"}},
  "note": "“Also recorded” adds a separate entry of the source.",
  "data": [
    {"compound": "rCCL7: recombinant CCL7", "values": [
      {"measurement": "neutrophils as a percentage of total cells recovered from BAL fluid", "setting": "naïve mice", "value": "preferential accumulation of neutrophils compared to rCCL2"},
      {"measurement": "recruitment of neutrophils into lung airspaces", "setting": "naïve mice", "value": "resulted in the recruitment of a neutrophils"},
      {"measurement": "total cell number recovered from BAL fluid", "setting": "naïve mice", "value": "increased"}
    ]},
    {"compound": "CCL7: Recombinant human CCL7 (Peprotech)", "values": [
      {"measurement": "migration of neutrophils compared to media alone", "setting": "human neutrophils", "value": "did not influence"}
    ]},
    {"compound": "CXCL8: Recombinant human CXCL8 (IL-8) (Peprotech)", "values": [
      {"measurement": "migration of neutrophils compared to media alone", "setting": "human neutrophils", "value": "increased"}
    ]},
    {"compound": "rCCL2: recombinant CCL2", "values": [
      {"measurement": "recruitment of neutrophils into lung airspaces", "setting": "naïve mice", "value": "resulted in the recruitment of a neutrophils"},
      {"measurement": "total cell number recovered from BAL fluid", "setting": "naïve mice", "value": "increased; also recorded: greater number of leukocytes compared to rCCL7"}
    ]},
    {"compound": "CCOC(=O)N[C@@H]1CC[C@@H]2[C@@H](C1)C[C@H]1C(=O)O[C@H](C)[C@H]1[C@H]2/C=C/c1ccc(-c2cccc(F)c2)cn1", "note": "[SCH530348]", "values": [
      {"measurement": "neutrophil numbers in the airspaces (BAL fluid)", "setting": "LPS challenged mice", "value": "significantly decreased"},
      {"measurement": "total cell numbers in the airspaces (BAL fluid)", "setting": "LPS challenged mice", "value": "significantly decreased"}
    ]}
  ]
}
